Source: patent EP1025097B1, “1-(2-NAPHTHYL) AND 1-(2-AZANAPHTHYL)-4-(1-PHENYLMETHYL)PIPERAZINES BEING DOPAMINE D 4? RECEPTOR SUBTYPE LIGANDS” (NEUROGEN CORPORATION, priority 1997, dated 1999)
pKi: −log10 of the molar value.

target: T1, D2 receptors (Chlorocebus aethiops, UniProt P52702); assay: Assay for D2 receptor binding activity (3H-YM 09151-2 displacement, COS cell pellets); parameters: species or system African Green monkey; settings: recombinant receptor in COS cells; 0.5 nM 3H-YM 09151-2
T1 construct: expressed in transfected cells; host or cells: COS cells
T1 sequence (P52702 whole entry): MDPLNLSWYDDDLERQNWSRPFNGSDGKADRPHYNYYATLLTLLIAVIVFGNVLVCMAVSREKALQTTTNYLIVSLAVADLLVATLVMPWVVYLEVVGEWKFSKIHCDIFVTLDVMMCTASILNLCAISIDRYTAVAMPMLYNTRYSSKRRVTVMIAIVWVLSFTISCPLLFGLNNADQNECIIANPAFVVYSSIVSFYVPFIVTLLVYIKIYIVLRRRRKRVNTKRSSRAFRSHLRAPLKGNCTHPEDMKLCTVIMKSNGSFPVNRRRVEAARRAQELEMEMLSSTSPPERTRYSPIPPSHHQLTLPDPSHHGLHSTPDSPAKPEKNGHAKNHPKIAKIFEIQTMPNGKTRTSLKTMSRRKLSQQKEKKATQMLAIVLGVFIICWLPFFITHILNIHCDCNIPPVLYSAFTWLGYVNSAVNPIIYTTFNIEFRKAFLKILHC
Protocol: Pellets of COS cells containing recombinantly produced D2 or D4 receptors from African Green monkey are used for the assays. The sample is homogenized in 100 volumes (w/vol) of 0.05 M Tris HCl buffer at 4° C and pH 7.4. The sample is then centrifuged at 30,000 x g and resuspended and rehomogenized. The sample is again centrifuged as described above and the final tissue sample is frozen until use. The tissue is resuspended 1:20 (wt/vol) in 0.05 M Tris HCl buffer containing 100 mM NaCl.
Incubations are carried out at […] and contain 0.4 ml of tissue sample, 0.5 nM ^3H-YM 09151-2 (Nemonapride, cis-5-Chloro-2-methoxy-4-(methylamino)-N-(2-methyl-2-(phenylmethyl)-3-pyrrolidinyl)benzamide)and the compound of interest in a total incubation of 1.0 ml. Nonspecific binding is defined as that binding found in the presence of […] spiperone; without further additions, nonspecific binding is less than 20% of total binding. Binding characteristics for examples of compounds encompassed within Formulae II, III and V for the D2 and D4 receptor subtypes are shown in Table 2 for […].

Row | pKi | Compound
1 | < 5.40 | Cc1ccc(CN2CCN(c3ccc4ccccc4n3)CC2)cc1 [Compound 2]
2 | < 5.40 | Clc1ccc(CN2CCN(c3ccc4ccccc4c3)CC2)cc1 [Compound 6]
3 | < 5.40 | Clc1ccc(CN2CCN(c3cnc4ccccc4n3)CC2)cc1 [Compound 3]
